Experimental data reported in patent publication US10329304B2, “Compounds and methods for inhibition of hedgehog signaling and phosphodiesterase” (Vanderbilt University, priority 2014, dated 2019).

What was measured:
Gli1 mRNA = test: Hh % Inh.: SAG-induced Gli1 expression in C3H10T½ cells (qPCR); assay type: cell-based; settings: Mus musculus, C3H 10T1/2, SAG-induced (100 nM), 24 hours; for inhibition at 1 µM: 1 pM [sic], read-out: C3H10T1/2 qPCR, Gh1 mRNA % Inh., 1 pM; for inhibition at 10 µM: 10 pM [sic], read-out: C3H10T1/2 qPCR, Gh1 mRNA % Inh., 10 pM
Method: Compounds are dosed from 10 mM DMSO stock solutions, and mRNA is isolated after 24 hours of compound treatment. mRNA is reverse transcribed to produce cDNA which is quantified by quantitative polymerase chain reaction (qPCR) in triplicate and levels are normalized to GAPDH levels. Data is presented as percent inhibition compared to positive control (SAG).

[1] = test system: Hedgehog signaling (TM3-Gli-Luc); test: TM3-Gli-Luc luciferase reporter assay stimulated with 20 nM SAG; assay type: cell-based; settings: Table 9A; read-out: TM3 G8 Luciferase EC 50
Method: TM3-Gli-Luc cells were maintained on sterile 0.1% gelatin (from porcine skin, Type A, prepared in MilliQ water, autoclaved, then sterile-filtered) in 1:1 Dulbecco's Modified Eagle Medium (DMEM)/F12 supplemented with 5% horse serum, 2.5% fetal bovine serum (FBS), and 15 mM HEPES, hereafter referred to as TM3 Culture Medium. For small molecule evaluation, TM3-Gli-Luc cells were assayed on 0.1% gelatin in DMEM/F12 supplemented with 2.5% FBS and 15 mM HEPES, hereafter referred to as TM3Luc Medium. Sufu^−/− cells were maintained in DMEM supplemented with 4.5 g/L D-glucose, L-glutamine, 25 mM HEPES, and 10% FBS, hereafter referred to as D10 FBS. For small molecule evaluation, Sufu^−/− cells were assayed in DMEM supplemented with 4.5 g/L D-glucose, L-glutamine, 25 mM HEPES, and 0.5% FBS, hereafter referred to as D0.5 FBS. All cells were cultured at 37° C. with a 5% CO2 atmosphere.
On the day of cell plating, 96-well plates were coated with 50 μL/well of sterile 0.1% gelatin for 5 minutes then aspirated and replaced with 50 μL/well of TM3 Culture Medium. TM3-Gli-Luc cells were seeded at a density of 5,000 cells/well in TM3 Culture Medium and incubated for 24 hours. A master mix of 20 nM SAG in TM3Luc Medium was prepared, and small molecule solutions were prepared by adding the desired amount of compound from 10 mM DMSO stock to TM3Luc Medium containing 20 nM SAG. Negative control was prepared by adding an equi-volume amount of DMSO as compared to small molecule treated conditions to TM3Luc Medium not containing SAG. Cell plating medium was aspirated and replaced with 100 μL/well of prepared small molecule-containing media, and plates were incubated for 48 hours before proceeding to luciferase activity and cell viability reading.
TM3Luc Medium from compound treated plates was aspirated and replaced with 82 μL/well of Glo Lysis Buffer (Promega, Madison, Wis., USA), and plates were shaken at 300 rpm and room temperature for 12 minutes. Lysate was split between two white 96-well plates, 45 μL/well and 25 μL/well for luciferase reading and cell viability respectively. For luciferase activity monitoring, 45 μL/well of Steady Glo (Promega, Madison, Wis., USA) was added to 45 μL/well of cell lysate, incubated at room temperature for 5 minutes, then luminescence was measured on a Turner Biosystems Modulus Microplate Reader (Sunnyvale, Calif., USA) with an integration time of 0.5 seconds. For cell viability measurement, 25 μL/well of Cell Titer Glo (Promega, Madison, Wis., USA) (prepared by 1:10 dilution with Glo Lysis Buffer) was added to 25 μL/well of cell lysate, incubated at room temperature for 5 minutes, then luminescence was measured as above.
Luciferase activity data (Steady Glo) was divided by corresponding cell viability data (Cell Titer Glo) to arrive at a live cell number-normalized luciferase activity reading. The average of negative control data (DMSO treated) was subtracted from all wells, and percent activity was calculated by dividing all wells by the positive control (SAG treated) average. […] At least two independent assays tested on separate days were averaged to provide EC50±standard error of the mean.

zebrafish embryos = test: Zebrafish embryo phenotypic assay (ZF); assay type: in vivo; settings: wild-type embryonic zebrafish, dosed 5 hpf
Method: All zebrafish experiments were approved by Vanderbilt University Institutional Animal Care and Use Committee. Wild-type zebrafish of AB strain were maintained using standard protocols. Chemical screen for small molecules was performed as previously described. Briefly, pairs of zebrafish were mated, and fertilized eggs were arrayed in 96-well microtiter plates (5 embryos/well) containing 250 μl E3 water. At ˜4-hpf, small molecule library from Vanderbilt High Throughput Screening Facility was added to each well to the final concentration of 5 μM. Embryos were incubated at 28.5° C. until 24 and 48-hpf, when they were examined for gross morphologic changes indicative of disruption in embryonic patterning. A total of ˜30,000 compounds were screened.
ZF refers to wild-type embryonic zebrafish phenotypic assay involving dosing n=˜10 embryos in E3 egg water with compound from either a stock of 1 mM or 10 mM in DMSO at 5 hours post-fertilization and observing at 24, 48, and 72 hours post-fertilization.

[2] = test system: Hedgehog signaling (Gli-Luc reporter); test: Hh Gli-Luciferase reporter assay in Shh-Light2 cells; assay type: cell-based, mouse; settings: for EC50: Mus musculus, Shh Light2, Table 9B, read-out: Shh Light2 Luc EC50
Method: For Hh signaling assays, Shh-Light2 cells stably transfected with Gli-Luciferase reporter construct were used along with Shh-conditioned media, as previously described^7. Alternatively, 3 μM purmorphamine or 20 nM Smoothened agonist (SAG) (Santa Cruz Biotechnology, Santa Cruz, Calif.) was used to induce Hh signaling. Reporter cells were seeded in 96-well plates and incubated overnight with the various concentrations of eggmanone and Shh-conditioned media. To assess the effects of overexpression of Gli-2, PDE4D3 and DN-PDE4D3 on Hh signaling, mammalian expression vectors containing these constructs were transfected into Shh-Light2 cells in 96-well plates using Fugene6 (Roche), according to manufacturer's instructions. The transfected or Shh-stimulated cells were incubated overnight with the various concentrations of compound. The cells were then lysed, and cell extracts were subjected to Steady-Glo luciferase assay (Promega) according to manufacturer's instructions. The results were normalized to cell titer, as determined using Cell Titer-Glo luminescence assay (Promega).

EC50 [1] [µM]	Compound	inhibition at 10 µM (Gli1 mRNA) [%]	ZF Phenotype EC100 (zebrafish embryos) [µM]	other results
1.11	O=C(CSc1nc2ccsc2c(=O)n1C1CC1)c1cccs1 [JEH-2-069-2]		48	
30.2	C=C(C)Cn1c(SCC(=O)c2cccs2)nc2sc3c(c2c1=O)CCOC3 [JEH-2-120-1]	82.9		
14.1	C=C(C)Cn1c(SCC(=O)c2cccs2)nc2cnccc2c1=O [JEH-2-088]	24.2		
5.13	CN1CCc2c(sc3nc(SCC(=O)c4ccccc4)n(C4CC4)c(=O)c23)C1 [KYK-1-76]		>50	
3.79	O=C(CSc1nc2sc3c(c2c(=O)n1C1CC1)CCCC3)c1ccncc1 [JEH-1-163-2]		>50	
3.16	O=C(CSc1nc2sccc2c(=O)n1CC1CC1)c1cccnc1 [JEH-2-022-2]		25	
5.01	Cc1ccc(CSc2nc3sccc3c(=O)n2C2CC2)cc1 [JEH-1-190-3]		>50	
4.67	CCCN1CCc2c(sc3nc(SCC(=O)c4ccccc4)n(C4CC4)c(=O)c23)C1 [KYK-1-100]		>50	
10.5	C=C(C)Cn1c(SCC(=O)c2cccnc2)nc2sc3c(c2c1=O)CCCC3 [JEH-3-045-3]	43.6		
8.55	O=C(CSc1nc2sc3c(c2c(=O)n1C1CC1)CCNC3)c1ccccc1 [KYK-1-57]		>50	
11.2	C=C(C)Cn1c(SCC(=O)c2cccs2)nc2ncccc2c1=O [JEH-1-146-2]	28.7	>50	
9.55	O=C(CSc1nc2sc3c(c2c(=O)n1C1CC1)CCSC3)c1cccs1 [JEH-1-161-2]		1	
19.1	O=C(CSc1nc2sc3c(c2c(=O)n1C1CC1)CCOC3)c1cccs1 [JEH-1-161-1]		0.5	
23.9	C=C(C)Cn1c(SC)nc2sc3c(c2c1=O)CCCC3 [JEH-3-146]	83.9		inhibition at 1 µM (Gli1 mRNA): 48.4%
7.08	O=C(CSc1nc2sc3c(c2c(=O)n1CC1CCC1)CCCC3)c1cccs1 [JEH-3-056-1]	67.2	1	inhibition at 1 µM (Gli1 mRNA): 14.7%

The remaining lines, values behind:

Compound	EC50 [1] [µM]	inhibition at 10 µM (Gli1 mRNA) [%]	ZF Phenotype EC100 (zebrafish embryos) [µM]	other results
CC(C)(C)Cn1c(SCC(=O)c2cccs2)nc2sc3c(c2c1=O)CCCC3 [JEH-3-056-2]		84.8		inhibition at 1 µM (Gli1 mRNA): 13.1%
O=C(CSc1nc2sccc2c(=O)n1C1CC1)c1cccs1 [JEH-1-065-2]	1.09		10	
CC(C)n1c(SCC(=O)c2cccs2)nc2sc3c(c2c1=O)CCCC3 [JEH-3-031]		101		inhibition at 1 µM (Gli1 mRNA): 11.7%
C=C(C)Cn1c(SCC(=O)N2CCCC(C)C2)nc2sc3c(c2c1=O)CCCC3 (stereo not shown) [JEH-3-120-1]		106		inhibition at 1 µM (Gli1 mRNA): 28.7%
O=C(CSc1nc2ncccc2c(=O)n1C1CC1)c1cccs1 [JEH-1-137]	3.32		>50	
C=CCn1c(SCC(=O)c2ccc(-c3ccccc3)cc2)nc2sc3c(c2c1=O)CCCC3 [Formula (20)]				Hh Inhibition Assay (EC50, μM) ([2]; Table 8): Inactive
O=C(CSc1nc2ccccc2c(=O)n1C1CC1)c1cccs1 [JEH-1-134]	0.713		1	
CC(C)(O)Cn1c(SCC(=O)c2cccs2)nc2sc3c(c2c1=O)CCCC3 [JEH-3-038-3]		14.8		inhibition at 1 µM (Gli1 mRNA): 24.4%
CCn1c(SCC(=O)c2ccc(Br)cc2)nc2sc3c(c2c1=O)CCC3 [HI2863]				EC50 [2]: > 10 µM
C=C(C)Cn1c(SCC(=O)c2cccs2)nc2sc3c(c2c1=O)CCN(C(=O)c1ccco1)C3 [JEH-2-105]		54.9		
C=C(C)Cn1c(SCC(=O)c2cccs2)nc2sccc2c1=O [JEH-1-054]	1.1	50.4	>50	inhibition at 1 µM (Gli1 mRNA): 19.6%
C=C(C)Cn1c(SCC(=O)c2cccs2)nc2sc3c(c2c1=O)CCNC3 [JEH-1-064]	7.06	64.1	>50	
C=CCn1c(SCC(=O)c2ccc(C)cc2)nc2sc3c(c2c1=O)CCCC3 [HI612]				EC50 [2]: > 10 µM
CCn1c(SCC(=O)c2ccccc2)nc2sc(C)c(C)c2c1=O [HI864]				EC50 [2]: > 10 µM
O=C(CSc1nc2sc3c(c2c(=O)n1Cc1ccccc1)CCCC3)c1cccs1 [JEH-3-058-2]		18.3		
C=C(C)Cn1c(SC)nc2sc3c(c2c1=O)CCCC3 [HI272]				EC50 [2]: > 10 µM
CCn1c(SCC(=O)c2ccccc2)nc2sc3c(c2c1=O)CCC3 [HI598]				EC50 [2]: > 10 µM
C=C(C)Cn1c(SCC(=O)c2cccs2)nc2ccccc2c1=O [JEH-1-146-1]	> 50	68.9	10	
CC(C)Cn1c(SCC(=O)c2cccs2)nc2sc3c(c2c1=O)CCCC3 [JEH-3-038-2]		102		inhibition at 1 µM (Gli1 mRNA): 27.8%
C=CCn1c(SCC(=O)O)nc2sc3c(c2c1=O)CCCC3 [HI918]				EC50 [2]: > 10 µM
C=CCn1c(SCC(=O)c2ccc(F)cc2)nc2sc3c(c2c1=O)CCCC3 [HI682]				EC50 [2]: > 10 µM
